Test system: endothelial tube formation in co-cultures of ECFCs and ADSCs treated with VEGF
Assay: cells
Assay type: cell-based, human
Settings: not given

| SMILES | VEGF_ADSC\ECFC Angio CD31 TubeArea IC50/EC50 |
| --- | --- |
| CO[C@H]1O[C@@H]2O[C@@]3(C)CC[C@H]4[C@H](C)CC[C@@H]([C@H]1C)[C@@]24OO3 [NCGC00164591-04] | > 10 µM |
| CCOC(=O)c1ccccc1C(=O)OCC [NCGC00090974-06] | > 10 µM |
| O=C([O-])CCC(=O)OC[C@@H](NC(=O)C(Cl)Cl)[C@H](O)c1ccc([N+](=O)[O-])cc1.[Na+] [NCGC00094619-06] | > 10 µM |
| CC(C)Cn1cnc2c1c(=O)n(C)c(=O)n2C [NCGC00168348-03] | > 10 µM |

Test system: DLD-1
Assay: cells
Assay type: cell-based
Settings: assay number 23; basal

| SMILES | Basal_Viability ATP DLD-1 IC50/EC50 |
| --- | --- |
| CO[C@H]1O[C@@H]2O[C@@]3(C)CC[C@H]4[C@H](C)CC[C@@H]([C@H]1C)[C@@]24OO3 [NCGC00164591-04] | > 20 µM |
| CCOC(=O)c1ccccc1C(=O)OCC [NCGC00090974-06] | > 20 µM |
| CC(C)Cn1cnc2c1c(=O)n(C)c(=O)n2C [NCGC00168348-03] | > 20 µM |

Same assay, conditions: assay number 23; concentration response

| SMILES | Basal_Viability ATP DLD-1 IC50/EC50 |
| --- | --- |
| O=C([O-])CCC(=O)OC[C@@H](NC(=O)C(Cl)Cl)[C@H](O)c1ccc([N+](=O)[O-])cc1.[Na+] [NCGC00094619-06] | > 20 µM |

Test system: SW480
Assay: cells
Assay type: cell-based
Settings: assay number 24; basal

| SMILES | Basal_Viability ATP SW480 IC50/EC50 |
| --- | --- |
| CO[C@H]1O[C@@H]2O[C@@]3(C)CC[C@H]4[C@H](C)CC[C@@H]([C@H]1C)[C@@]24OO3 [NCGC00164591-04] | > 20 µM |
| CCOC(=O)c1ccccc1C(=O)OCC [NCGC00090974-06] | > 20 µM |
| CC(C)Cn1cnc2c1c(=O)n(C)c(=O)n2C [NCGC00168348-03] | > 20 µM |

Same assay, conditions: assay number 24; concentration response

| SMILES | Basal_Viability ATP SW480 IC50/EC50 |
| --- | --- |
| O=C([O-])CCC(=O)OC[C@@H](NC(=O)C(Cl)Cl)[C@H](O)c1ccc([N+](=O)[O-])cc1.[Na+] [NCGC00094619-06] | > 20 µM |

Test system: HCT116
Assay: cells
Assay type: cell-based
Settings: assay number 25; basal

| SMILES | Basal_Viability ATP HCT116 IC50/EC50 |
| --- | --- |
| CO[C@H]1O[C@@H]2O[C@@]3(C)CC[C@H]4[C@H](C)CC[C@@H]([C@H]1C)[C@@]24OO3 [NCGC00164591-04] | > 20 µM |
| CCOC(=O)c1ccccc1C(=O)OCC [NCGC00090974-06] | > 20 µM |
| CC(C)Cn1cnc2c1c(=O)n(C)c(=O)n2C [NCGC00168348-03] | > 20 µM |

Same assay, conditions: assay number 25; basal; concentration response

| SMILES | Basal_Viability ATP HCT116 IC50/EC50 |
| --- | --- |
| O=C([O-])CCC(=O)OC[C@@H](NC(=O)C(Cl)Cl)[C@H](O)c1ccc([N+](=O)[O-])cc1.[Na+] [NCGC00094619-06] | > 20 µM |

Test system: HCT116 cells treated with a GSK3β inhibitor
Assay: cells
Assay type: cell-based
Settings: assay number 26; GSK3b inhibitor pretreated

| SMILES | GSK3b inh pretreated_Viability ATP HCT116 IC50/EC50 |
| --- | --- |
| CO[C@H]1O[C@@H]2O[C@@]3(C)CC[C@H]4[C@H](C)CC[C@@H]([C@H]1C)[C@@]24OO3 [NCGC00164591-04] | > 20 µM |
| CCOC(=O)c1ccccc1C(=O)OCC [NCGC00090974-06] | > 20 µM |
| CC(C)Cn1cnc2c1c(=O)n(C)c(=O)n2C [NCGC00168348-03] | > 20 µM |

Same assay, conditions: assay number 26; GSK3b inhibitor pretreated; concentration response

| SMILES | GSK3b inh pretreated_Viability ATP HCT116 IC50/EC50 |
| --- | --- |
| O=C([O-])CCC(=O)OC[C@@H](NC(=O)C(Cl)Cl)[C@H](O)c1ccc([N+](=O)[O-])cc1.[Na+] [NCGC00094619-06] | > 20 µM |

Test system: Colo320
Assay: cells
Assay type: cell-based
Settings: assay number 27; basal

| SMILES | Basal_Viability ATP Colo 320 IC50/EC50 |
| --- | --- |
| CO[C@H]1O[C@@H]2O[C@@]3(C)CC[C@H]4[C@H](C)CC[C@@H]([C@H]1C)[C@@]24OO3 [NCGC00164591-04] | > 20 µM |
| CCOC(=O)c1ccccc1C(=O)OCC [NCGC00090974-06] | > 20 µM |
| CC(C)Cn1cnc2c1c(=O)n(C)c(=O)n2C [NCGC00168348-03] | > 20 µM |

Same assay, conditions: assay number 27; concentration response

| SMILES | Basal_Viability ATP Colo 320 IC50/EC50 |
| --- | --- |
| O=C([O-])CCC(=O)OC[C@@H](NC(=O)C(Cl)Cl)[C@H](O)c1ccc([N+](=O)[O-])cc1.[Na+] [NCGC00094619-06] | > 20 µM |

Test system: HT-29
Assay: cells
Assay type: cell-based
Settings: assay number 28; basal

| SMILES | Basal_Viability ATP HT-29 IC50/EC50 |
| --- | --- |
| CO[C@H]1O[C@@H]2O[C@@]3(C)CC[C@H]4[C@H](C)CC[C@@H]([C@H]1C)[C@@]24OO3 [NCGC00164591-04] | > 20 µM |
| CCOC(=O)c1ccccc1C(=O)OCC [NCGC00090974-06] | > 20 µM |
| CC(C)Cn1cnc2c1c(=O)n(C)c(=O)n2C [NCGC00168348-03] | > 20 µM |

Same assay, conditions: assay number 28; concentration response

| SMILES | Basal_Viability ATP HT-29 IC50/EC50 |
| --- | --- |
| O=C([O-])CCC(=O)OC[C@@H](NC(=O)C(Cl)Cl)[C@H](O)c1ccc([N+](=O)[O-])cc1.[Na+] [NCGC00094619-06] | > 20 µM |

Test system: RKO
Assay: cells
Assay type: cell-based
Settings: assay number 29; basal

| SMILES | Basal_Viability ATP RKO IC50/EC50 |
| --- | --- |
| CO[C@H]1O[C@@H]2O[C@@]3(C)CC[C@H]4[C@H](C)CC[C@@H]([C@H]1C)[C@@]24OO3 [NCGC00164591-04] | > 20 µM |
| CCOC(=O)c1ccccc1C(=O)OCC [NCGC00090974-06] | > 20 µM |
| CC(C)Cn1cnc2c1c(=O)n(C)c(=O)n2C [NCGC00168348-03] | > 20 µM |

Same assay, conditions: assay number 29; concentration response

| SMILES | Basal_Viability ATP RKO IC50/EC50 |
| --- | --- |
| O=C([O-])CCC(=O)OC[C@@H](NC(=O)C(Cl)Cl)[C@H](O)c1ccc([N+](=O)[O-])cc1.[Na+] [NCGC00094619-06] | > 20 µM |

Test system: SNU-C1
Assay: cells
Assay type: cell-based
Settings: assay number 30; basal

| SMILES | Basal_Viability ATP SNU-C1 IC50/EC50 |
| --- | --- |
| CO[C@H]1O[C@@H]2O[C@@]3(C)CC[C@H]4[C@H](C)CC[C@@H]([C@H]1C)[C@@]24OO3 [NCGC00164591-04] | > 20 µM |
| CCOC(=O)c1ccccc1C(=O)OCC [NCGC00090974-06] | > 20 µM |
| CC(C)Cn1cnc2c1c(=O)n(C)c(=O)n2C [NCGC00168348-03] | > 20 µM |

Same assay, conditions: assay number 30; concentration response

| SMILES | Basal_Viability ATP SNU-C1 IC50/EC50 |
| --- | --- |
| O=C([O-])CCC(=O)OC[C@@H](NC(=O)C(Cl)Cl)[C@H](O)c1ccc([N+](=O)[O-])cc1.[Na+] [NCGC00094619-06] | > 20 µM |

Test system: ECFC/ADSC co-culture cell nuclei number
Assay: not given
Settings: not given

| SMILES | VEGF_ADSC\ECFC Angio Hoechst NucArea IC50/EC50 |
| --- | --- |
| CO[C@H]1O[C@@H]2O[C@@]3(C)CC[C@H]4[C@H](C)CC[C@@H]([C@H]1C)[C@@]24OO3 [NCGC00164591-04] | > 10 µM |
| CCOC(=O)c1ccccc1C(=O)OCC [NCGC00090974-06] | > 10 µM |
| O=C([O-])CCC(=O)OC[C@@H](NC(=O)C(Cl)Cl)[C@H](O)c1ccc([N+](=O)[O-])cc1.[Na+] [NCGC00094619-06] | > 10 µM |
| CC(C)Cn1cnc2c1c(=O)n(C)c(=O)n2C [NCGC00168348-03] | > 10 µM |

— PMC4503722, “Novel Phenotypic Outcomes Identified for a Public Collection of Approved Drugs from a Publicly Accessible Panel of Assays” (PLoS ONE, 2015)
